Results from paper PMC10294837 (Antioxidants, 2023).
Read-outs that look alike come from different tables or passages of the source.

Key:
[1] = test system: complex I-linked respiration in isolated mitochondria; test: Complex I-linked respiration, high-resolution respirometry in isolated mitochondria; type: biochemical, pig; conditions: for IC50: four-parameter logistic; for IC50 / Residual Activity, complex I-linked respiration: mean ± SEM, four measurements
Procedure: (§1) The mitochondrial fraction was isolated and purified from the pig brain cortex. For high-resolution respirometry and ATP assays, freshly prepared mitochondria were kept on ice. Part of the mitochondria was frozen, stored at −70 °C, and used to determinate mitochondrial enzymes activities (ETC complexes, CS, malate dehydrogenase, and MAO).
The high-resolution Oxygraph-2k (Oroboros Instruments Corp, Innsbruck, Austria) was used to measure mitochondrial oxygen consumption rate.
(§2) Respiration rate (oxygen flux) was quantified as the number of pmol of oxygen consumed per second per mg of a protein.
(§3) Four-parametric logistic regression was used to analyze inhibition of respiratory rate and MAO activity to determine half-maximal inhibitory concentration (IC50), residual activity, and Hill slope. Prism software from GraphPad (San Diego, CA, USA) was used for this analysis.

MAO-A = molecular target: T1, MAO-A (Sus scrofa, UniProt Q6Q2J0); test: MAO-A activity, radiolabeled [3H]serotonin substrate, pig brain mitochondria; type: biochemical
T1 construct: from tissue; host or cells: pig brain cortex mitochondria
T1 sequence (Q6Q2J0 1-527): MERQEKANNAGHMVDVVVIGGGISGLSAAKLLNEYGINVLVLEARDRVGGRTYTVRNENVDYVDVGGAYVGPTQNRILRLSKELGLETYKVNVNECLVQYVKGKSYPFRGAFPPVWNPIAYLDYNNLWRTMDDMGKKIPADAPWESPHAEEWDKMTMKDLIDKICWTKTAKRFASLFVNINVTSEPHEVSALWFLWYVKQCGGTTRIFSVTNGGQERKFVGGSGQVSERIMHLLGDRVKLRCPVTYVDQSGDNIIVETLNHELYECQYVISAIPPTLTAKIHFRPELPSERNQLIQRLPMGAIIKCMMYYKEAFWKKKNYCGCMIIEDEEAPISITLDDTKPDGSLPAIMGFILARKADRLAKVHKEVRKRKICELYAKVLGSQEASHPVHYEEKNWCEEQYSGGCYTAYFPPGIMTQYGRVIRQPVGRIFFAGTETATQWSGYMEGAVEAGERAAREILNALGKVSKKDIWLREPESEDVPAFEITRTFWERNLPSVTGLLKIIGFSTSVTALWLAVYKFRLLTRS
Procedure: (§4) KH buffer was used to preincubate mitochondria (final concentration of 800 µg/mL) with the tested drugs (concentration range of 0.1–300 µmol/L). MAO enzymatic activity was measured using radiolabeled substrates ([^3H]serotonin for MAO-A and [^14C]PEA for MAO-B). The reaction was terminated with hydrochloric acid, the organic phase was separated, and the radioactivity was determined by liquid scintillation counting (LS 6000IC, Beckman Instruments, Inc., Fullerton, CA, USA).
as §3

MAO-B = molecular target: T2, MAO-B (Sus scrofa, UniProt Q6PLK3); test: MAO-B activity, radiolabeled [14C]PEA substrate, pig brain mitochondria; type: biochemical; conditions: for IC50 / Hill Slope, MAO-B / Residual Activity, MAO-B: mean ± SEM, four measurements
T2 construct: from tissue; host or cells: pig brain cortex mitochondria
T2 sequence (Q6PLK3 1-520): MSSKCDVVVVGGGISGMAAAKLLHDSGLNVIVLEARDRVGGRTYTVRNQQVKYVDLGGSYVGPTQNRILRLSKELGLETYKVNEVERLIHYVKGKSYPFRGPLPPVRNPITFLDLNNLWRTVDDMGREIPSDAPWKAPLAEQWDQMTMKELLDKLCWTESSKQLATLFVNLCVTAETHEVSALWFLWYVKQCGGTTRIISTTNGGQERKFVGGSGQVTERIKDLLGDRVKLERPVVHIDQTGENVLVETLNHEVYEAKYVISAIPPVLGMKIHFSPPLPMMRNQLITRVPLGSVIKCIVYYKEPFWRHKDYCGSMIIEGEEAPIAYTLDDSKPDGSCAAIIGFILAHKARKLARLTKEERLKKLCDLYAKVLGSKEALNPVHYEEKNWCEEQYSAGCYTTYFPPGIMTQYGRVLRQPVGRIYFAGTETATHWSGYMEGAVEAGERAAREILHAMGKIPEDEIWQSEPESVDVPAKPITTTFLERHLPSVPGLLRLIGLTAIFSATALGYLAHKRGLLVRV
Procedure: as §4, §3

citrate synthase (CS) = molecular target: T3, citrate synthase (CS) (Sus scrofa, UniProt P00889); test: Activity of citrate synthase in pig brain mitochondria; type: biochemical; conditions: mean ± SD, N = 3
T3 construct: used to determinate mitochondrial enzymes activities (ETC complexes, CS, malate dehydrogenase, and MAO); from tissue; host or cells: pig brain cortex mitochondria (frozen, ultrasonicated)
T3 sequence (P00889 28-464): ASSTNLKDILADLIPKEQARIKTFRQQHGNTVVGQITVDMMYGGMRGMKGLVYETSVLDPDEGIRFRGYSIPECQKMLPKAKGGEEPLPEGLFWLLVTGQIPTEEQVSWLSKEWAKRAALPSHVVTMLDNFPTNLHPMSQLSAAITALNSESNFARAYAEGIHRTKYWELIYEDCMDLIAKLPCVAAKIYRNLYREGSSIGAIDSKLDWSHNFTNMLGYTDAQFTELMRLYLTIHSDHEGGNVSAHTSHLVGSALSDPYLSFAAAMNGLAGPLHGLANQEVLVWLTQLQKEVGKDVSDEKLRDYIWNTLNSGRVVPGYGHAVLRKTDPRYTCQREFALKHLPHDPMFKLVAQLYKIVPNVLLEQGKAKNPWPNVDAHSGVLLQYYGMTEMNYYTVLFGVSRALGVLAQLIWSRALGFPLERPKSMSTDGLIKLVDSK
Procedure: Ultrasonicated mitochondria were incubated with the tested drugs for 30 min at 30 °C, with a corresponding drug-free control for every measurement. The activities of mitochondrial enzymes were determined as the absorbance measured with a GENESYS 180 UV-Vis spectrophotometer (Thermo Fisher Scientific, Waltham, MA, USA). […] […] […] An ATP standard curve was constructed.

[2] = molecular target: T4, malate dehydrogenase (MDH) (Sus scrofa, UniProt P00346); test: Activity of malate dehydrogenase in pig brain mitochondria; type: biochemical; conditions: mean ± SD, N = 3
T4 construct: used to determinate mitochondrial enzymes activities (ETC complexes, CS, malate dehydrogenase, and MAO); from tissue; host or cells: pig brain cortex mitochondria (frozen, ultrasonicated)
T4 sequence (P00346 25-338): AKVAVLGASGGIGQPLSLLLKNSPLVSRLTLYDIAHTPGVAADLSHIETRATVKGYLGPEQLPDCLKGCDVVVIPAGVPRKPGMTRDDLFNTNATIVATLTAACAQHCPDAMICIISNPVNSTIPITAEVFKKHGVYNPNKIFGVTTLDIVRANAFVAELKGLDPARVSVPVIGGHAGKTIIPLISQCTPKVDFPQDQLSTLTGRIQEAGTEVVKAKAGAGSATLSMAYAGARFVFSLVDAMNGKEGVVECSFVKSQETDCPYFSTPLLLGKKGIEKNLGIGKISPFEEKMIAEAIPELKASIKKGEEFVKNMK
Procedure: Ultrasonicated mitochondria were incubated with the tested drugs for 30 min at 30 °C, with a corresponding drug-free control for every measurement. The activities of mitochondrial enzymes were determined as the absorbance measured with a GENESYS 180 UV-Vis spectrophotometer (Thermo Fisher Scientific, Waltham, MA, USA). The conversion of oxaloacetate to malate was used to measure malate dehydrogenase (MDH) activity. The reaction was started by adding oxaloacetate and nicotinamide adenine dinucleotide (NADH) (measured at 340 nm for 3 min). […] […] An ATP standard curve was constructed.

[3] = test system: complex II-linked respiration in isolated mitochondria; test: Complex II-linked respiration, high-resolution respirometry in isolated mitochondria; type: biochemical, pig
Procedure: as §1
The high-resolution Oxygraph-2k (Oroboros Instruments Corp, Innsbruck, Austria) was used to measure mitochondrial oxygen consumption rate. […] The final protein concentration was 0.05–0.14 mg/mL.
as §2, §3

Row | Inhibition (partial/full), MAO-A (MAO-A) | IC50 (MAO-A; mean ± SEM, four measurements) [µM] | Inhibition (partial/full), MAO-B (MAO-B) | IC50 (MAO-B) [µM] | SMILES | Inhibition (partial/full), complex I-linked respiration [1] | IC50 [1] [µM] | Residual Activity, complex I-linked respiration [1] [rel.u.] | CS (% of control) (citrate synthase (CS); 10 μM) | CS (% of control) (citrate synthase (CS); 100 μM) | MDH (% of control) ([2]; 10 μM) | MDH (% of control) ([2]; 100 μM) | Residual Activity, MAO-A (MAO-A; mean ± SEM, four measurements) [rel.u.] | Hill Slope, MAO-B (MAO-B) | Residual Activity, MAO-B (MAO-B) [rel.u.] | other results
1 | full | 8.78 ± 2.27 | full | 15.2 ± 2.23 | CN(C)CCC[C@@]1(c2ccc(F)cc2)OCc2cc(C#N)ccc21 [escitalopram] | partial | 0.14 ± 0.08 | 0.774 ± 0.015 | – | – | – | – | – | – | – | Inhibition (partial/full), MAO-A (MAO-A; listed as ESC): full inhibitors; Inhibition (partial/full), MAO-B (MAO-B; listed as ESC): full inhibitors
2 | full | 0.47 ± 0.06 | full | 2.19 ± 0.21 | Fc1ccc([C@@H]2CCNC[C@H]2COc2ccc3c(c2)OCO3)cc1 [paroxetine] | partial | 26.7 ± 6.73 | 0.672 ± 0.029 | 105.8 ± 1.69 % of control | 98.4 ± 0.85 % of control | 100.1 ± 2.22 % of control | 97.9 ± 1.71 % of control | 0.007 ± 0.017 | 1.06 ± 0.10 | 0.015 ± 0.021 | Inhibition (partial/full), MAO-A (MAO-A; listed as PAR): full inhibitors; Hill Slope, MAO-A (MAO-A; mean ± SEM, four measurements): 1.65 ± 0.22; Inhibition (partial/full), MAO-B (MAO-B; listed as PAR): full inhibitors

Row | SMILES | Inhibition (partial/full), MAO-A (MAO-A) | IC50 (MAO-A; mean ± SEM, four measurements) [µM] | Inhibition (partial/full), MAO-B (MAO-B) | IC50 (MAO-B) [µM] | Inhibition (partial/full), complex I-linked respiration [1] | IC50 [1] [µM] | Residual Activity, complex I-linked respiration [1] [rel.u.] | CS (% of control) (citrate synthase (CS); 10 μM) | CS (% of control) (citrate synthase (CS); 100 μM) | MDH (% of control) ([2]; 10 μM) | MDH (% of control) ([2]; 100 μM) | Residual Activity, MAO-A (MAO-A; mean ± SEM, four measurements) [rel.u.] | Hill Slope, MAO-B (MAO-B) | Residual Activity, MAO-B (MAO-B) [rel.u.] | other results
3 | CC(NC(C)(C)C)C(=O)c1cccc(Cl)c1 (stereo not shown) [bupropion] | partial | 20.1 ± 5.68 | partial | 31.5 ± 3.32 | – | – | – | 105.6 ± 1.29 % of control | 99.5 ± 0.93 % of control | 99.2 ± 2.90 % of control | 99.6 ± 2.72 % of control | 0.235 ± 0.050 | 1.68 ± 0.20 | 0.410 ± 0.018 | Inhibition (partial/full), complex II-linked respiration [3]: partial; IC50 ([3]; four-parameter logistic, mean ± SEM, four measurements): 10.6 ± 4.49 µM; Inhibition (partial/full), complex II-linked respiration ([3]; listed as BUP): weak partial inhibitor; Residual Activity, complex II-linked respiration ([3]; mean ± SEM, four measurements): 0.690 ± 0.045 rel.u.; Inhibition (partial/full), MAO-A (MAO-A; listed as BUP): partial inhibitors; Inhibition (partial/full), MAO-B (MAO-B; listed as BUP): partial MAO-B inhibitors
